Experimental data from US9790252B2, “2-fluorinated riboses and arabinoses and methods of use and synthesis” (CORNELL UNIVERSITY, priority 2009, dated 2017).

What was measured:
HEK293 and Neuro2A cells = experiment: Immucillin-H effects on β-ara-Cl-NR toxicity (MTT); format: cell-based; details: 10 μM ImmH with 5-100 μM β-ara-Cl-NR, 12 hours
Procedure: We speculated that like NR, the chloro derivatives might degrade in cells by action of an enzyme that converts it to ribose-1-phosphate. This enzyme is called purine nucleoside phosphorylase (PNP). Immucillin-H (gift of Schramm lab) is a potent inhibitor of PNP. […] Assay: • 1. HEK293 and Neuro2A cells were seeded in 96-well plate at a density of 25,000 cells/well the day before the experiment starts; • 2. After the cells reach 50˜60% confluency, media was taken out, and 100 μL of fresh media was added to each well; • 3. β-ara-Cl-NR (black) and ImmH (bold) were plated according to the following Table 12: • 4. After 12 hours' incubation at 37° C., the media was taken out, 100 μL of fresh media was added to each well along with 20 μL of 5 mg/mL of MTT solution (in PBS); • 5. After 2 hours' incubation at 37° C., media was taken out and 100 μL of DMSO was added to each well, the plate was mixed on shaker for 5 mins; • 6. Absorbance was measured at 570 nm.

SirT2 = molecular target: T1, SirT2 (Homo sapiens, UniProt Q8IXJ6); experiment: SirT2 activity assay (HPLC of 2′- and 3′-AADPR); format: biochemical; details: 800 μM NAD+, 500 μM H3 peptide, pH 7.5
T1 sequence (Q8IXJ6 1-389): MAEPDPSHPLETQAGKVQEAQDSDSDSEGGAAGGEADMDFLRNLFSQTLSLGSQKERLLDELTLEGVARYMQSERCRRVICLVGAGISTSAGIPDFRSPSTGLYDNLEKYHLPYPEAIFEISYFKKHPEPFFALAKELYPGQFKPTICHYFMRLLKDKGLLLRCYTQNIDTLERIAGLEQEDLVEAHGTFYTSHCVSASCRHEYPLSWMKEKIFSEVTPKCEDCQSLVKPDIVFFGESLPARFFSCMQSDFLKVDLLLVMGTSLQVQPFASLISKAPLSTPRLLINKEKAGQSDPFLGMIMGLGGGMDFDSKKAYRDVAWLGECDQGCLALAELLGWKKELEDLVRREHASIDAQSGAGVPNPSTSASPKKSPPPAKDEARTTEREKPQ
Procedure: (§1) Reactions containing 800 μM NAD^+, 500 μM H3 peptide, and 100 mM phosphate buffer at pH 7.5, with varying concentrations of 2′-deoxy-2′-fluoro-nucleosides or nucleotides were initiated by addition of SirT2 enzyme to a concentration of 16.6 μM. Reactions were incubated for 45 mins at 37° C. and quenched by addition of trifluoroacetic acid to pH 2. After centrifugation to remove precipitates, reactions were injected on HPLC for activity analysis. Production of 2′- and 3′-AADPR were analyzed at 260 nm.
as §1, with “SirT2 Activity Assay: Reactions containing” for “Reactions containing”, “concentrations of 2′-deoxy-2′-chloro-nucleosides were initiated” for “concentrations of 2′-deoxy-2′-fluoro-nucleosides or nucleotides were initiated”

HEK293 cells = experiment: Toxicity to HEK293 cells (MTT); format: cell-based; details: for 100 μM absorbance / 100 μM relative viability: HEK293, 100 μM; for 100 μM absorbance / 100 μM relative viability / 500 μM absorbance / 500 μM relative viability: 12 hours; for 100 μM absorbance / 500 μM absorbance: MTT 1.5 hours, 570 nm; for 100 μM relative viability / 500 μM relative viability: control = 1; for 500 μM absorbance / 500 μM relative viability: HEK293, 500 μM; for EC50: 2′-deoxy-2′-fluoro-nucleosides and nucleotides
Procedure: 1. HEK293 cells were seeded in 96-well plate at a density of 25,000 cells/well the day before the experiment starts;
2. After the cells reach 50˜60% confluency, media was taken out, and 100 μL of fresh media was added to each well;
3. F-derivatives were plated at 100 and 500 μM (in duplicates) concentrations;
4. After 12 hours' incubation at 37° C., the media was taken out, 100 μL of fresh media was added to each well along with 20 μL of 5 mg/mL of MTT solution (in PBS);
5. After 1.5 hours' incubation at 37° C., media was taken out and 100 μL of DMSO was added to each well, the plate was mixed on shaker for 5 mins;
(§2) Absorbance was measured at 570 nm.
(§3) Assay for Determining Toxicity to HEK293 and Neuro2A Cells • 1. HEK293 and Neuro2A cells were seeded in 96-well plate at a density of 25,000 cells/well the day before the experiment starts; • 2. After the cells reach 50˜60% confluency, media was taken out, and 100 μL of fresh media was added to each well; • 3. Cl-derivatives were plated at 100 and 500 μM (in duplicates) concentrations; • 4. After 12 hours' incubation at 37° C., the media was taken out, 100 μL of fresh media was added to each well along with 20 μL of 5 mg/mL of MTT solution (in PBS); • 5. After 2 hours' incubation at 37° C., media was taken out and 100 μL of DMSO was added to each well, the plate was mixed on shaker for 5 mins; • 6. Absorbance was measured at 570 nm.

Neuro2A cells = experiment: Toxicity to Neuro2A cells (MTT); format: cell-based; details: for 100 μM absorbance / 100 μM relative viability / 500 μM absorbance / 500 μM relative viability: 12 hours; for 100 μM absorbance / 500 μM absorbance: MTT 1.5 hours, 570 nm; for 100 μM relative viability / 500 μM relative viability: control = 1; for EC50: 2′-deoxy-2′-fluoro-nucleosides and nucleotides
Procedure: 6. Neuro2A cells were seeded in 96-well plate at a density of 25,000 cells/well the day before the experiment starts;
7. After the cells reach 50˜60% confluency, media was taken out, and 100 μL of fresh media was added to each well;
8. […]
9. After 12 hours' incubation at 37° C., the media was taken out, 100 μL of fresh media was added to each well along with 20 μL of 5 mg/mL of MTT solution (in PBS);
10. After 1.5 hours' incubation at 37° C., media was taken out and 100 μL of DMSO was added to each well, the plate was mixed on shaker for 5 mins;
as §2
as §3, with “Cl-derivatives were plated at 100 and 500 μM (in duplicates) concentrations; • 4.” left out

[1] = molecular target: T2, cell developmental protein 38 (CD38) (Homo sapiens, UniProt P28907); details: mechanism-based inhibitor; previous studies (Refs. 10, 12); read-out: apparent Ki; cited from earlier work
T2 sequence (P28907 1-300): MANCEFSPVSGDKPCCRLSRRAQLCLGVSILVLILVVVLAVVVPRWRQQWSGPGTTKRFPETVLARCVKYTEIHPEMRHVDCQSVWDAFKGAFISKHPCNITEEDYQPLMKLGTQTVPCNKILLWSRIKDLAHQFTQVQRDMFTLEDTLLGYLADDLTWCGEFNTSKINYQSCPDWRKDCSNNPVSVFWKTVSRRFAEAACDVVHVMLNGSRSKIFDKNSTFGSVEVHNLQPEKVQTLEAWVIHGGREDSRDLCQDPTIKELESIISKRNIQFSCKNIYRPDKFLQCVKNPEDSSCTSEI

SirT1 = molecular target: T3, SirT1 (Homo sapiens, UniProt Q96EB6); experiment: SirT1 activity assay (HPLC of 2′- and 3′-AADPR); format: biochemical; details: 200 μM NAD+, 100 μM JB12 peptide, pH 7.5, 30 mins at 37° C.
T3 sequence (Q96EB6 1-747): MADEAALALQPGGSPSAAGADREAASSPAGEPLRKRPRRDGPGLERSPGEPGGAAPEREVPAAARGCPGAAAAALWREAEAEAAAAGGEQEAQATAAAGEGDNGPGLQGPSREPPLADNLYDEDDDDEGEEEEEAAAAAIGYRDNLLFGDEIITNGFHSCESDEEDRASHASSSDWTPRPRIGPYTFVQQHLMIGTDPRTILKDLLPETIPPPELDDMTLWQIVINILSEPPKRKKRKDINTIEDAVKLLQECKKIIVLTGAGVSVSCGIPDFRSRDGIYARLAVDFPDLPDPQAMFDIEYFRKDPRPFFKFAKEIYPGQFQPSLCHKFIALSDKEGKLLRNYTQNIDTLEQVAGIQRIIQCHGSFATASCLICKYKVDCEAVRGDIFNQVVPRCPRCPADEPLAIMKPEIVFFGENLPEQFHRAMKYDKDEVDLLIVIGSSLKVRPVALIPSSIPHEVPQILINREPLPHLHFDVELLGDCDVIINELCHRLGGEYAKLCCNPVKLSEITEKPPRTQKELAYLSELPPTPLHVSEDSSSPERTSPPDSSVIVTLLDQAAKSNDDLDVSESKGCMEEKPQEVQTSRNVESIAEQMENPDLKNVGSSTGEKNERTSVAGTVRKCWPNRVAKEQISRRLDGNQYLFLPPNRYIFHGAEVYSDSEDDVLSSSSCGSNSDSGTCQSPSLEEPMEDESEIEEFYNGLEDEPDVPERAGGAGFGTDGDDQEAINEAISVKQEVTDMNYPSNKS
Procedure: as §1, with “200” for “800”, “100” for “500”, “JB12” for “H3”, “SirT1” for “SirT2”, “12.9” for “16.6”, “30” for “45”
SirT1 Activity Assay: Reactions containing 200 μM NAD^+, 100 μM JB12 peptide, and 100 mM phosphate buffer at pH 7.5, with varying concentrations of 2′-deoxy-2′-chloro-nucleosides were initiated by addition of SirT1 enzyme to a concentration of 12.9 μM. Reactions were incubated for 30 mins at 37° C. and quenched by addition of trifluoroacetic acid to pH 2. After centrifugation to remove precipitates, reactions were injected on HPLC for activity analysis. Production of 2′- and 3′-AADPR were analyzed at 260 nm.

SMILES: O=c1[nH]cnc2c([C@@H]3N[C@H](CO)[C@@H](O)[C@H]3O)c[nH]c12 [Immucillin-H]
- effect of PNP inhibition on β-ara-Cl-NR toxicity (HEK293 and Neuro2A cells): largely incapable of preventing this toxicity

SMILES: NC(=O)c1ccc[n+]([C@@H]2O[C@H](COP(=O)([O-])O)C(O)C2F)c1 (stereo partly drawn) [ara-F-NMN, 2′-deoxy-2′-fluoro-arabino-nicotinamide mononucleotide]
- SirT2 inhibition (in words) (SirT2): no inhibition
- 100 μM absorbance (HEK293 cells): 1.267
- 100 μM relative viability (HEK293 cells): 0.5574
- 500 μM absorbance (HEK293 cells): 0
- 500 μM relative viability (HEK293 cells): 0
- EC50 (HEK293 cells; HEK293): 88 µM
- 100 μM absorbance (Neuro2A cells): 2.126
- 100 μM relative viability (Neuro2A cells): 0.874
- 500 μM absorbance (Neuro2A cells): 0.0143
- 500 μM relative viability (Neuro2A cells): 0.006
- EC50 (Neuro2A cells): 164 µM
- Ki [1]: 0.061 µM

SMILES: NC(=O)c1ccc[n+]([C@@H]2O[C@H](COP(=O)([O-])OP(=O)(O)OC[C@H]3O[C@@H](n4cnc5c(N)ncnc54)[C@H](O)[C@@H]3O)[C@@H](O)C2(F)F)c1 [gem-diF-NAD, 2′-deoxy-2′,2′-difluoro-NAD^+]
- Ki (SirT1): 60 µM
- 100 μM absorbance (HEK293 cells): 1.797
- 100 μM relative viability (HEK293 cells): 0.7905
- 500 μM absorbance (HEK293 cells): 1.556
- 500 μM relative viability (HEK293 cells): 0.6844
- EC50 (HEK293 cells; Homo sapiens, HEK293, HEK293): 1130 µM
- 100 μM absorbance (Neuro2A cells): 1.5765
- 100 μM relative viability (Neuro2A cells): 0.648
- 500 μM absorbance (Neuro2A cells): 1.1916
- 500 μM relative viability (Neuro2A cells): 0.49
- EC50 (Neuro2A cells; Mus musculus, N2a): 400 µM
